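Grown in 96-well plates, cells were treated for 48 hours with each compound at five concentrations. Insufficient inhibition: endpoint recorded as highest concentration tested. TGI marks complete inhibition of growth.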

Holding throughout (assay): NCI-60 cell line screen, 48 h
Assay [1] has as its system SK-MEL-28 melanoma.
Assay [2] has as its system MALME-3M melanoma.
The subject of assay [3] is RXF 393 renal.
Assay [4] deals with SNB-75 CNS.
The test system of assay [5] is BT-549 breast.
Assay [6] concerns OVCAR-4 ovarian.
Assay [7] relates to UACC-62 melanoma.
Assay [8] relates to M14 melanoma.
Assay [9] relates to UO-31 renal.
Assay [10] relates to UACC-257 melanoma.
Assay [11] relates to T-47D breast.
Assay [12] concerns OVCAR-3 ovarian.
In assay [13] the test system is KM12 colon.
The test system of assay [14] is SF-268 CNS.
Assay [15] deals with 786-0 renal.
Assay [16] has as its system HCT-116 colon.
The subject of assay [17] is HT29 colon.
The test system of assay [18] is HCT-15 colon.
Assay [19] concerns LOX IMVI melanoma.

As to `CC1=C(O)C(=O)C[C@]2(C)[C@H]3CC=C4[C@@H]5CC(C)(C)CC[C@@H]5C(=O)[C@H](O)[C@@]4(C)[C@]3(C)CC[C@@H]12`, the TGI is > 50 µM in assay [1]; > 50 µM in [2]; 37.9 µM in assay [3]; > 50 µM in assay [4]; > 50 µM in assay [5]; > 50 µM in [6]. Also, the TGI in assay [7], in assay [8], in [9], in [10], in assay [11] and in assay [12] was > 50 µM in each case. Moreover, the TGI in assay [13], in assay [14], in assay [15], in assay [16], in assay [17] and in assay [18] was > 50 µM each time.

As for `CCN(CCCN(CC)C(=O)Nc1ccccc1)C(=O)Nc1ccccc1`, the TGI in assay [1], in assay [2], in assay [3], in [4], in assay [19] and in [5] was > 100 µM each time. In addition, the TGI in assay [6], in [7], in [8], in assay [9], in assay [10] and in [11] was > 100 µM each time. Moreover, the TGI in [12], in [13], in assay [15], in assay [16], in assay [17] and in assay [18] was > 100 µM each time.

Take `COc1ccc(N=Nc2ccc3oc(=O)c(C(=O)Nc4ccccc4)cc3c2)cc1`: the TGI in assay [1], in [2], in [3], in assay [4], in assay [19] and in assay [5] was > 10 µM throughout. Moreover, the TGI in assay [6], in assay [7], in assay [8], in [9], in [10] and in assay [11] was > 10 µM in each case. For the same compound, the TGI in assay [12], in assay [13], in assay [14], in [15], in assay [16] and in [17] was > 10 µM each time. Moreover, the TGI in assay [18] is > 10 µM.

On to `CCCCCCCCCCCCCCCCCCNc1ccn(C2OC(CO)C(O)C2O)c(=O)n1` (centres undefined), for which the TGI in [1], in assay [2], in assay [3], in assay [4], in [19] and in assay [5] was > 100 µM throughout. The TGI in assay [6], in assay [7], in assay [8], in [9], in assay [10] and in assay [11] was > 100 µM each time. The TGI in assay [12], in assay [13], in [14], in assay [15], in assay [16] and in [17] was > 100 µM in each case. In addition, in assay [18], the TGI is > 100 µM.

Turning to `C=C(C(=O)O)C1CCC(CC/C=C(\C)CC/C=C(\C)CCC=C(C)C)CO1` (centres undefined), the TGI in assay [1] was 29.5 µM; in [2] it was 63 µM; in assay [3], 29.6 µM; in assay [4], > 100 µM; in [19], 24.6 µM; in assay [5] it was 61.8 µM. Further, the TGI in assay [6] was > 100 µM; in assay [7], > 100 µM; in [8], 25.5 µM; in [9], 30 µM; in assay [10] it was 52.9 µM; in assay [11], > 100 µM. The TGI in assay [13] was 28.4 µM; in [14], > 100 µM; in assay [15], 28.1 µM; in assay [16], 17.8 µM; in assay [17] it was 29.3 µM; in assay [18] it was 31.9 µM.

`Cc1cnc(/N=c2\sc(C)cn2-c2ncc(C)s2)s1`: the TGI in assay [1], in assay [2], in assay [3], in assay [4], in assay [19] and in assay [5] was > 100 µM each time. Moreover, the TGI in assay [6], in assay [7], in assay [8], in assay [9], in assay [10] and in assay [11] was > 100 µM in each case. Further, the TGI in assay [12], in assay [13], in assay [14], in assay [15], in [16] and in assay [17] was > 100 µM throughout. In assay [18], the TGI is > 100 µM.

For the compound `CCO[C@@H]1CCC(S(=O)c2ccc(C)cc2)=CO1` (some centres undefined), the TGI in assay [1], in assay [2], in assay [3], in assay [4], in [19] and in assay [5] was > 100 µM each time. Besides, the TGI in assay [6], in assay [7], in assay [9], in assay [10], in assay [11] and in [12] was > 100 µM each time. In addition, the TGI in assay [13], in [14], in assay [15], in assay [16], in [17] and in assay [18] was > 100 µM throughout.

As for `COc1cc2nc(-c3cccs3)nc(N3C(c4ccc(O)cc4)=NNC(=O)c4ccccc43)c2cc1OC`, the TGI in assay [1] was > 100 µM; in assay [2], 43.9 µM; in assay [3] it was 39.6 µM; in assay [4] it was 64 µM; in [19], 54.6 µM; in [5], 42.8 µM. The TGI in assay [6] is > 100 µM; in [7] it was 43 µM; in [8], 79.4 µM; in assay [9] it was 37.4 µM; in assay [10] it was 84.9 µM; in assay [11] it was > 100 µM. Also, the TGI in assay [13] is > 100 µM; in assay [14], 77.4 µM; in [15] it was > 100 µM; in assay [16], 86 µM; in [17], 67.9 µM; in assay [18], > 100 µM.

Consider `C/C(=N\NC(=S)NC1CCCC1)c1ccccn1`, for which the TGI in assay [1] is > 100 µM; in [2], > 28.6 µM; in assay [3], 29.1 µM; in assay [4], > 100 µM; in [19], 17.8 µM; in [5] it was 63.9 µM. The TGI was > 100 µM in assay [6]; 7.8 µM in assay [7]; 15.7 µM in assay [8]; 22.3 µM in [9]; > 23.9 µM in assay [11]; 10.3 µM in [12]. Also, the TGI is > 83.2 µM in [13]; > 100 µM in [14]; > 100 µM in [15]; 3.48 µM in [16]; > 100 µM in assay [17]; > 100 µM in assay [18].

For `C=C1CCC2CC1[C@@H](C(=O)c1c[nH]c3ccccc13)NC2(C)C` (some centres undefined), the TGI in [1], in assay [2], in [3], in [4], in assay [19] and in assay [5] was > 37.5 µM each time. Besides, the TGI in [6], in assay [7], in assay [9], in assay [10], in [11] and in assay [12] was > 37.5 µM throughout. The TGI in assay [13], in [14], in assay [15], in [16], in assay [17] and in assay [18] was > 37.5 µM each time.

Regarding `COc1ccc(-c2cc(-c3ccc(Nc4ccnc5cc(Cl)ccc45)cc3)nc(N)c2C#N)cc1`, the TGI in [1], in [2], in assay [3], in [4], in assay [19] and in [5] was > 100 µM each time. Moreover, the TGI was > 100 µM in [6]; > 100 µM in assay [7]; > 100 µM in [8]; 70.1 µM in [9]; > 100 µM in assay [11]; > 100 µM in assay [12]. The TGI in [13], in [14], in assay [15], in assay [16] and in assay [18] was > 100 µM throughout.

Turning to `Cc1nc2ccc(F)cc2c2c1CCO2`, the TGI in [1], in [2], in assay [3], in assay [4], in [19] and in assay [5] was > 100 µM in each case. Further, the TGI in assay [6], in assay [7], in assay [8], in assay [9], in [10] and in [11] was > 100 µM in each case. In addition, the TGI in assay [13], in [14], in [15], in assay [16], in assay [17] and in assay [18] was > 100 µM each time.

`O=C1CCCCC1=C(I)I`: the TGI in assay [1] worked out at 31.8 µM; in assay [2], 27.5 µM; in [3], 30.5 µM; in assay [4] it was 47.1 µM; in assay [5], 26.8 µM; in assay [6], 24.5 µM. Moreover, the TGI in assay [7] was 33.9 µM; in assay [8], 32.3 µM; in assay [9], 30.5 µM; in assay [11] it was 28.7 µM; in [12], 30.3 µM; in [13], 28.8 µM. Moreover, the TGI in assay [14] is 57.2 µM; in assay [15], 31.9 µM; in assay [16], 30.9 µM.

For `COC(=O)C1CC=C(SC(=O)c2ccccc2)N1C(=O)c1ccccc1` (centres undefined), the TGI in assay [1], in [2], in assay [3], in assay [4], in assay [5] and in [6] was > 100 µM each time. The TGI in [7], in [8], in [9], in assay [10], in assay [11] and in [12] was > 100 µM throughout. Besides, the TGI in assay [13], in assay [14], in assay [15], in assay [16], in assay [17] and in [18] was > 100 µM each time.

As to `CN1CCN(c2cc3c(cc2F)c(=O)c(C(=O)O)cn3C2CC2)CC1CC#N` (centres undefined), the TGI in assay [1], in [2], in assay [3], in assay [4], in assay [19] and in assay [5] was > 100 µM in each case. Besides, the TGI in assay [6], in assay [7], in [9], in assay [10], in [11] and in [12] was > 100 µM each time. Besides, the TGI in [13], in [14], in assay [15], in assay [16], in [17] and in assay [18] was > 100 µM throughout.

Source of the values: PubChem BioAssay (NCI).
